The values that follow come from paper PMC7791840, “The R-enantiomer of ketorolac reduces ovarian cancer tumor burden in vivo” (BMC Cancer, 2021).

Structures can show the parent of a compound that is named as a salt. Bounds are passed on as bounds.

Details of series [1]: method as in PMID 8809637. To be noted: single dose oral administration of R-ketorolac; cited from earlier work.
The next series relates to RhoA. Details: method as in PMID 26071482. To be noted: cited from earlier work.
Another series concerns Cdc42. Details: method as in earlier work. To be noted: cell-based assays, ovarian tumor cells; ref 23 (R-ketorolac), 27 (S-ketorolac); cited from earlier work.
The next series has as its system COX-2. Details: method as in PMID 26558612, PMID 10027870. To be noted: cited from earlier work.
A short description of series [2]: Enantiomer stability of ketorolac in the oral dosage form (HPLC). It is filed as physicochemical. To be noted: transgenic dough pills stored at 4 °C. Here is the method: As an alternative to gavage for oral delivery, drug was administered in pills formed from transgenic dough (BioServ, Flemington, NJ, cat #S3472). […] Briefly, R-Ketorolac was dissolved in 100% ethanol to a concentration of 5 mg/ml. Bromophenol blue was added to solutions at a final concentration of 0.1% as an aid to ensure even distribution of drug into the dough. Placebo pills were made using an equivalent volume of 100% ethanol containing 0.1% bromophenol blue. Dough was then pressed using 100 mg pill forms (Gallipot, St. Paul, MN). Pills were allowed to dry at room temperature overnight then removed from the forms and stored at 4 °C. Ketorolac, as racemic compound or individual enantiomer, was stable for at least 3 months in the pills as determined by high performance liquid chromatography (HPLC) (Additional File 2: Figure S1).
Cell Culture and Reagents
SKOV3ip cells were modified to express GFP-Rac1 by transfection with pcDNA3-EGFP-Rac1-wt (Catalog # 12980, Addgene) as described for SKOV3ip-GFP cells under Methods. Rac1 overexpression quantification and verification was completed by western blot and qPCR. […]
Omental tissue was harvested and stored on ice in PBS for no more than 1 hour before analysis. Omenta were blotted dry on lab tissue and weight was measured using an analytical balance (Denver Instruments Company, A -160). […]

`O=C(c1ccccc1)c1ccc2n1CC[C@H]2C(=O)O` [R-ketorolac]: the “Maximal peak serum concentration” value in series [1] was 2.48 µg/mL. Moreover, the “Inhibition of RhoA activity” value in the series with RhoA is reported as “does not inhibit the activity of RhoA”. Besides, the results for the IC50 in the series with Cdc42 and in the series on COX-2 were 1.07 µM and above 100 µM, respectively.

With `O=C(c1ccccc1)c1ccc2n1CCC2C(=O)O` (centres unmarked) [R−/S-ketorolac, ketorolac tromethamine salt], the Stability in pills result in series [2] was “at least 3 months”.

The term IC50 denotes the concentration at which inhibition is half-maximal.
